How the values were obtained:
[1] = biological target: T1, Alpha-1A adrenergic receptor (Rattus norvegicus, UniProt P43140); assay: DRUGMATRIX: Alpha-1A adrenergic receptor radioligand binding (ligand: prazosin); format: cell membranes, Wistar, Submaxillary gland, Membrane; settings: Not Active = under 50% inhibition at 10 µM
T1 sequence (P43140 whole entry): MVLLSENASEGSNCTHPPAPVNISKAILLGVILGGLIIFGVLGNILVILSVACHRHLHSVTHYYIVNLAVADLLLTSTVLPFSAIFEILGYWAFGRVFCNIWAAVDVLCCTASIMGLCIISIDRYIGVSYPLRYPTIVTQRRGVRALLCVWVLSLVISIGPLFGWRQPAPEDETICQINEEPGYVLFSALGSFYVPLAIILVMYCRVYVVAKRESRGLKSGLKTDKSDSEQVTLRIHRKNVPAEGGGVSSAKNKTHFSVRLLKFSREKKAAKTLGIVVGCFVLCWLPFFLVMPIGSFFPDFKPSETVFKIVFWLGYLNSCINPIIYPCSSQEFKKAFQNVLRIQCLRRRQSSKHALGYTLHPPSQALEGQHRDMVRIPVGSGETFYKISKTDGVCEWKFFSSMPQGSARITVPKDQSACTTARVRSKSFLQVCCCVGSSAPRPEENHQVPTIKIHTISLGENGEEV

[2] = biological target: T2, Alpha-2A adrenergic receptor (Homo sapiens, UniProt P08913); format: cell membranes, Sf9, Membrane; further: in other assays of this panel Not Active means under 50% inhibition at 10 µM
T2 sequence (P08913 whole entry): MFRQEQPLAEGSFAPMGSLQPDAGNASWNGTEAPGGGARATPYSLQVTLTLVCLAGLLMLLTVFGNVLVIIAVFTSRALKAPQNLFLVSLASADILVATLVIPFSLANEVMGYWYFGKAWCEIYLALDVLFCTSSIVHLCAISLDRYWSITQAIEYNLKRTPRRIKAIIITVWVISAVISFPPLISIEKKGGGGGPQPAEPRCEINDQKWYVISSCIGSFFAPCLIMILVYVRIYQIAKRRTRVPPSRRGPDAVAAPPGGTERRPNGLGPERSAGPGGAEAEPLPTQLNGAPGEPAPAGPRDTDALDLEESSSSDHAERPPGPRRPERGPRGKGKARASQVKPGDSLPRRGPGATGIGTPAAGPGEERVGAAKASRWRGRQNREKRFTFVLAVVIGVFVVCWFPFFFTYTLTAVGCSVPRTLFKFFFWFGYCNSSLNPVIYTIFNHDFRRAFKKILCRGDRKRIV

[3] = DRUGMATRIX: Calcium Channel Type L, Phenylalkylamine radioligand binding (ligand: [3H] (-)-Desmethoxyverapamil (D-888)); format: cell membranes, Rattus norvegicus, Wistar, Brain, Membrane; settings: Not Active = under 50% inhibition at 10 µM
Endothelin-1 receptor = biological target: T3, Endothelin-1 receptor (Homo sapiens, UniProt P25101); format: cell membranes, Membrane; settings: cho-k1; further: in other assays of this panel Not Active means under 50% inhibition at 10 µM
T3 sequence (P25101 whole entry): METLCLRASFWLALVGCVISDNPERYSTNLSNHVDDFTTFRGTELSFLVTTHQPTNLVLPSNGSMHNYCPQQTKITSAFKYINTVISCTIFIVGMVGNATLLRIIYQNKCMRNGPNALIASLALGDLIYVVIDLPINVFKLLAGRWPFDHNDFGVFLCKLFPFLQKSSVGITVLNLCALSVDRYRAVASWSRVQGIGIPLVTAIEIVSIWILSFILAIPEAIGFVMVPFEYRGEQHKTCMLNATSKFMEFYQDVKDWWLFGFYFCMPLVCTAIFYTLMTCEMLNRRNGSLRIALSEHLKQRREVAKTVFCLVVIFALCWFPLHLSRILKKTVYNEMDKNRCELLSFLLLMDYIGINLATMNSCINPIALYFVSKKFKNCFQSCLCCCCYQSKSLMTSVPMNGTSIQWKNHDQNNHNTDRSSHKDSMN

[4] = DRUGMATRIX: GABAA, Flunitrazepam, Central radioligand binding (ligand: [3H] Flunitrazepam); format: cell membranes, Rattus norvegicus, Wistar, Brain, Membrane; settings: Not Active = under 50% inhibition at 10 µM
[5] = biological target: Protein kinase C alpha type (Homo sapiens, UniProt P17252); format: cell-based; settings: sf9;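 further: inhibition of PKCalpha kinase activity measured in an enzyme assay with histone as the phosphorylation substrate; in other assays of this panel Not Active means under 50% inhibition at 10 µM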

Row | SMILES | IC50 [1] | IC50 ([2]; sf9) | IC50 [3] | Ki [3] | IC50 (Endothelin-1 receptor) | IC50 [4] | Ki [4] | IC50 [5] | IC50 ([2]; read-out: IC50) [µM] | Ki ([2]; read-out: Ki) [µM]
1 | COc1cc([C@@H]2c3cc4c(cc3[C@H](O)[C@H]3COC(=O)[C@H]23)OCO4)cc(OC)c1OC [PODOFILOX] | Not Active | Not Active | Not Active | Not Active | Not Active | Not Active | Not Active | Not Active |  | 
2 | C[N+](C)(C)CCOC(N)=O.[Cl-] [CARBACHOL] | Not Active | Not Active | Not Active | Not Active | Not Active | Not Active | Not Active | Not Active |  | 
3 | CC1(COc2ccc(CC3SC(=O)NC3=O)cc2)CCCCC1 (centres undefined) [CIGLITAZONE] | Not Active |  | Not Active | Not Active | Not Active | Not Active | Not Active | Not Active | 16.6 | 6.21
4 | Oc1ncnc2[nH]ncc12 [ALLOPURINOL] | Not Active | Not Active | Not Active | Not Active | Not Active | Not Active | Not Active | Not Active |  | 
5 | CC(C)Cn1cnc2c(N)nc3ccccc3c21 [IMIQUIMOD] | Not Active | Not Active | Not Active | Not Active | Not Active | Not Active | Not Active | Not Active |  | 
6 | NS(=O)(=O)c1cc(C(=O)O)c(NCc2ccco2)cc1Cl [FUROSEMIDE] | Not Active | Not Active | Not Active | Not Active | Not Active | Not Active | Not Active | Not Active |  | 

Source: ChEMBL document CHEMBL1909046, “DrugMatrix in vitro pharmacology data”
